As usually defined, the ED50 is the dose at which the effect has come halfway, by size or by number of responders. By EC30 is commonly meant the point of the concentration-response curve where the effect stands at 30%. Usually EC50 stands for the midpoint of the concentration-response curve.

Structures can show the parent of a compound that is named as a salt. Where two headings read alike, the source gives them in different places. Some results are limits rather than exact numbers.

Assay [1] concerns Apomorphine-Induced Emesis. The experiment in a line: Antagonism of Apomorphine-Induced Emesis in Dogs. The format is in vivo, beagle dogs. The following applies: Canis lupus familiaris, sc, read-out: Antagonism of Apomorphine-Induced Emesis in the Dog ED50. Here is the method:
Unfasted beagle dogs of both sexes were used as test subjects. Test compounds and apomorphine were each administered subcutaneously as aqueous solutions, with the test compound being administered 30 minutes prior to the administration of the apormorphine.
Apomorphine was administered at a dose of 0.3 mg/kg. […] All tests were run in at least two dogs.

Another assay has as its system Cisplatin-Induced Emesis. Description: Antagonism of Cisplatin-Induced Emesis in the Ferret. The following applies: Mustela putorius, iv, 4 h, read-out: Antagonism of Cisplatin-Induced Emesis in the Ferret, % Protection. In kind it is in vivo, Fitch ferrets. An excerpt:
The ventral and dorsal area of the neck is shaved and a 3 cm incision is made. The left jugular vein is exposed and ligated with a silk suture at the cephalic end. The indwelling catheter is constructed of Silastic tubing 18 cm in length (0.020 inch I.D.×0.037 inch O.D.) with a 2 cm polyethylene sleeve (0.045 inch I.D.×0.062 inch O.D.) filled with heparin (1000 units/ml) and sealed at the exposed end with a 23 gauge×1 inch needle crimped at both ends. A small cut is made in the jugular and the catheter inserted, allowing the free end to be delivered through a 13 gauge×5 cm trochar under the skin and attached to the nape of the neck with a silk suture. The ferrets are housed in individual cages and allowed 2-4 days recovery before testing. On the test day, the test compounds were administered i.v. […] The cisplatin solution was prepared by adding 70° C. physiological saline, stirring and sonicating until dissolved. The resulting solution (4 mg/ml) was maintained at 40° C. and administered i.v. ([…]) via the catheter. Following administration of cisplatin, the ferrets were observed continuously for four hours and emetic episodes recorded. Two or more emetic episodes within a one-minutes period was considered as a single episode. The ferrets were euthanized with T-61 i.v. at the termination of the experiment, and proper placement of the catheter was verified.

In assay [2] the test system is field-stimulated guinea pig ileum. Description: Gastrokinetic Activity: contraction of field-stimulated guinea pig ileum preparations. The arrangement: species or system guinea pig (Hartley). The following applies: Cavia porcellus. Here is the method: This activity is considered to be correlated with gastrokinetic (prokinetic) activity in vivo, i.e. enhancement of gastric motility and gastric emptying.
Normal, male guinea pigs (Hartley; Charles River) weighing […] are sacrificed by cervical dislocation. The terminal portion of the ileum was removed after discarding a 10 cm segment nearest to the ileocecal junction. The strips, 3-4 cm in length, were mounted in a 20 ml organ bath containing Krebs physiological buffer solution. The buffer was bubbled with 95% O2 -5% CO2 and kept at 37° C. The resting tension was adjusted to 1.0 g, and the tissues were equilibrated without stimulation for 15 minutes. For electrical stimulation, a platinum wire (cathode) was threaded up through the lumen and another platinum wire (anode) was attached to the glass rod that suspended the muscle. Tissues were stimulated coaxially at 1.5 times the voltage necessary to produce maximum twitch height, with single pulses, 0.5 msec in duration, delivered once every 10 seconds. After the 15 minute equilibration period (without stimulation), the stimulator (Grass S88 Stimulator) was turned on and the tissues were allowed to stabilize for approximately 1 hour, or until the twitch height remained constant, with washes every 20 minutes.

The mark [3] stands for this setting: s.c. 30 minutes prior to apomorphine 0.3 mg/kg, dog.

In the case of `CCCC(=O)COc1cc(N)c(Cl)cc1C(=O)NCCN(CC)CC` [Example 27, 4-Amino-5-chloro-N-[2-(diethylamino)ethyl]-2-(pentan-2-on-1-yl)oxybenzamide], the ED50 in assay [1] (setting [3]) was over 3 mg/kg. Besides, the inhibition in vivo at 1 mg/kg with Cisplatin-Induced Emesis (i.v. × 2) came out at 90%.

`CCN(CC)CCNC(=O)c1cc(Cl)c(N)cc1OCC(=O)OC` [Example 15, 4-Amino-5-chloro-N-[2-(diethylamino)ethyl]-2-(2-methoxy-2-oxoethoxy)benzamide]: in assay [1] (setting [3]), the ED50 was over 3 mg/kg. The inhibition in vivo at 3 mg/kg with Cisplatin-Induced Emesis (3 mg/kg, i.v. × 2) was 30%.

For `CCN(CC)CCNC(=O)c1cc(Cl)c(N)cc1OC(C)C(C)=O` (centres unmarked) [Example 7, 4-Amino-2-(butan-2-on-3-yl)oxy-5-chloro-N-[2-(diethylamino)ethyl]benzamide], in assay [1] (setting [3]), the ED50 is over 3 mg/kg. Besides, in the assay on Cisplatin-Induced Emesis (3 mg/kg, i.v. × 2), the inhibition in vivo at 3 mg/kg came out at 95%.

Turning to `CCN(CC)CCNC(=O)c1cc(Cl)c(N)cc1OCC(C)=O` [Example 5, 4-Amino-5-chloro-N-[2-(diethylamino)ethyl]-2-(2-propanon-1-yl)oxybenzamide], in assay [1] (setting [3]), the ED50 is over 3 mg/kg. Also, in the assay with Cisplatin-Induced Emesis (3 mg/kg, i.v. × 2), the inhibition in vivo at 3 mg/kg turned out to be 90%.

As for `CCN(CC)CCNC(=O)c1cc(Cl)c(N)cc1OCC(C)=NO` [Example 10, 4-Amino-5-chloro-N-[2-(diethylamino)ethyl]-2-[(2-hydroxyimino)propan-1-yl]oxybenzamide], in assay [1] (setting [3]), the ED50 was over 3 mg/kg. The inhibition in vivo at 3 mg/kg in the assay with Cisplatin-Induced Emesis (3 mg/kg, i.v. × 2) was 100%.

On to `CCN(CC)CCNC(=O)c1cc(Cl)c(N)cc1OC1CCCCC1=O` (centres unmarked) [Example 9, 4-Amino-5-chloro-2-(cyclohexanon-2-yl)oxy-N-[2-(diethylamino)ethyl]benzamide], for which the ED50 in assay [1] (setting [3]) was over 3 mg/kg. Besides, the inhibition in vivo at 3 mg/kg in the assay with Cisplatin-Induced Emesis (3 mg/kg, i.v. × 2) was found to be 100%.

Turning to `CCN(CC)CCNC(=O)c1cc(Cl)c(N)cc1OCc1ccccn1` [Example 45, 4-Amino-5-chloro-N-[2-(diethylamino)ethyl]-2-(2-pyridinomethyl)oxybenzamide], the ED50 in assay [1] (setting [3]) is over 3 mg/kg. Besides, the inhibition in vivo at 3 mg/kg in the assay on Cisplatin-Induced Emesis (3 mg/kg, i.v. × 2) worked out at 80%.

For `CCN(CC)CCNC(=O)c1cc(Cl)c(N)cc1OCC(C)O` (centres unmarked) [Example 12, 4-Amino-5-chloro-N-[2-(diethylamino)ethyl]-2-(2-hydroxypropan-1-yl)oxybenzamide], in assay [1] (setting [3]), the median effective dose (ED50) was over 3 mg/kg. The inhibition in vivo at 3 mg/kg in the assay on Cisplatin-Induced Emesis (3 mg/kg, i.v. × 2) is 86%.

As for `CCN(CC)CCNC(=O)c1cc(Cl)c(N)cc1OC(C)C(C)O` (mixture of isomers) [Example 41, 4-Amino-5-chloro-N-[2-(diethylamino)ethyl]-2-[(2-hydroxy)but-3-yl]oxybenzamide (mixture of threo and erythro isomers)], the ED50 in assay [1] (setting [3]) was over 3 mg/kg. For the same compound, in the assay with Cisplatin-Induced Emesis (3 mg/kg, i.v. × 2), the inhibition in vivo at 3 mg/kg worked out at 81%.

Consider `CCN(CC)CCNC(=O)c1cc(Cl)c(N)cc1OCC(O)Cc1ccccc1` (centres unmarked) [Example 33, 4-Amino-5-chloro-N-[2-(diethylamino)ethyl]-2-[2-(2-hydroxy-3-phenylpropyl)]oxybenzamide], for which the ED50 in assay [1] (setting [3]) was over 3 mg/kg. Moreover, the inhibition in vivo at 1 mg/kg with Cisplatin-Induced Emesis (i.v. × 2) was determined as 54%.

In the case of `CCN(CC)CCNC(=O)c1cc(Cl)c(N)cc1OCCOC` [Example 1, 4-Amino-5-chloro-N-[2-(diethylamino)ethyl]-2-(2-methoxyethoxy)benzamide], the ED50 in assay [1] (setting [3]) is over 3 mg/kg. Further, the inhibition in vivo at 3 mg/kg with Cisplatin-Induced Emesis (3 mg/kg, i.v. × 2) amounted to 76%.

As to `CCN(CC)CCNC(=O)c1cc(Cl)c(N)cc1OCC1OCCO1` [Example 43], the ED50 in assay [1] (setting [3]) was over 3 mg/kg. For the same compound, in the assay with Cisplatin-Induced Emesis (3 mg/kg, i.v. × 2), the inhibition in vivo at 3 mg/kg was determined as 67%.

In the case of `CCC(=O)C(C)Oc1cc(N)c(Cl)cc1C(=O)NCCN(CC)CC.Cl` (centres unmarked) [Example 28, 4-Amino-5-chloro-2-(pentan-3-on-2-yl)oxy-N-(2-diethylaminoethyl)benzamide hydrochloride], in assay [1] (setting [3]), the ED50 is over 3 mg/kg. Besides, the inhibition in vivo at 1 mg/kg in the assay with Cisplatin-Induced Emesis (i.v. × 2) was found to be 82%.

For the compound `O=c1[nH]c2ccccc2n1CCCN1CCC(n2c(=O)[nH]c3cc(Cl)ccc32)CC1` [Domperidone, reference compound], the ED50 in assay [1] worked out at 0.2 mg/kg. The inhibition in vivo at 3 mg/kg in the assay with Cisplatin-Induced Emesis came to 50%.

For `CCN(CC)CCNC(=O)c1cc(Cl)c(N)cc1OCC(=O)c1cccs1` [Example 52, 4-Amino-5-chloro-N-[2-(diethylamino)ethyl]-2-(2-thienoylmethoxy)benzamide], the ED50 in assay [1] (setting [3]) is over 3 mg/kg. The inhibition in vivo at 3 mg/kg in the assay on Cisplatin-Induced Emesis (3 mg/kg, i.v. × 2) was determined as 95%.

On to `CCN(CC)CCNC(=O)c1cc(Cl)c(N)cc1OCC(=O)c1ccccc1` [Example 6, 4-Amino-2-(2-phenyl-2-oxoethoxy)-5-chloro-N-[2-(diethylamino)ethyl]benzamid], for which the ED50 in assay [1] (setting [3]) was over 3 mg/kg. Besides, the inhibition in vivo at 3 mg/kg with Cisplatin-Induced Emesis (3 mg/kg, i.v. × 2) worked out at 100%.

Consider `C=CCC(Oc1cc(N)c(Cl)cc1C(=O)NCCN(CC)CC)C(C)=O` (centres unmarked) [Example 24, 4-Amino-5-chloro-N-[2-(diethylamino)ethyl]-2-(5-hexan-2-on-3-yl)oxybenzamide hydrochloride], for which, in assay [1] (setting [3]), the ED50 is over 3 mg/kg. Also, the inhibition in vivo at 3 mg/kg in the assay with Cisplatin-Induced Emesis (3 mg/kg, i.v. × 2) was 67%.

On to `CCN(CC)CCNC(=O)c1cc(Cl)c(N)cc1OCC(OC)OC` [Example 3, 4-Amino-5-chloro-N-[2-(diethylamino)ethyl]-2-(2,2-dimethoxyethoxy)benzamide], for which the 50% effective dose (ED50) in assay [1] (setting [3]) is over 3 mg/kg. Moreover, in the assay with Cisplatin-Induced Emesis (3 mg/kg, i.v. × 2), the inhibition in vivo at 3 mg/kg amounted to 82%.

For the compound `CCN(CC)CCNC(=O)c1cc(Cl)c(N)cc1OC(C)(C)C(C)=O.O` [Example 31, 4-Amino-5-chloro-N-[2-(diethylamino)ethyl]-2-[(3-methyl)butan-2-on-3-yl]oxybenzamide monohydrate], the ED50 in assay [1] (setting [3]) was over 3 mg/kg. Further, in the assay on Cisplatin-Induced Emesis (i.v. × 2), the inhibition in vivo at 1 mg/kg turned out to be 67%.

On to `CCN(CC)CCNC(=O)c1cc(Cl)c(N)cc1OCC#N` [Example 13, 4-Amino-5-chloro-2-cyanomethoxy-N-[2-(diethylamino)ethyl]benzamide], for which, in assay [1] (setting [3]), the ED50 was over 3 mg/kg. The inhibition in vivo at 3 mg/kg in the assay on Cisplatin-Induced Emesis (3 mg/kg, i.v. × 2) was determined as 90%.

For the compound `CCN(CC)CCNC(=O)c1cc(Cl)c(N)cc1OCCOCCOC` [Example 46, 4-Amino-5-chloro-N-[2-(diethylamino)ethyl]-2-(2-methoxyethoxyethyl)oxybenzamide], in assay [1] (setting [3]), the ED50 is over 3 mg/kg. Besides, the inhibition in vivo at 3 mg/kg in the assay with Cisplatin-Induced Emesis (3 mg/kg, i.v. × 2) is 76%.

Regarding `CCN(CC)CCNC(=O)c1cc(Cl)c(N)cc1OCC(=O)Cc1ccccc1` [Example 30, 4-Amino-5-chloro-N-[2-(diethylamino)ethyl]-2-(3-phenyl-2-propanon-1-yl)oxybenzamide], the ED50 in assay [1] (setting [3]) is over 3 mg/kg. Further, the inhibition in vivo at 3 mg/kg in the assay with Cisplatin-Induced Emesis (3 mg/kg, i.v. × 2) came out at 100%.

For `CCN(CC)CCNC(=O)c1cc(Cl)c(N)cc1OCCO` [Example 2, 4-Amino-5-chloro-N-[2-(diethylamino)ethyl]-2-(2-hydroxyethoxy)benzamide], the ED50 in assay [1] (setting [3]) is over 3 mg/kg. For the same compound, the inhibition in vivo at 3 mg/kg in the assay with Cisplatin-Induced Emesis (3 mg/kg, i.v. × 2) was 68%.

For the compound `CCC(=O)COc1cc(N)c(Cl)cc1C(=O)NCCN(CC)CC` [Example 26, 4-Amino-2-(2-butanon-1-yl)oxy-5-chloro-N-[2-(diethylamino)-ethyl]benzamide], in assay [1] (setting [3]), the ED50 was over 3 mg/kg. The inhibition in vivo at 3 mg/kg in the assay with Cisplatin-Induced Emesis (3 mg/kg, i.v. × 2) came to 90%.

With `CN(C)CCNC(=O)c1cc(Cl)c(N)cc1O` [Example 17, 4-Amino-5-chloro-N-[2-(dimethylamino)ethyl]-2-hydroxybenzamide], the activation at 10 µM in assay [2] (at 10 μM, read-out: Average % Maximum Increase) was 41%. Also, the EC30 in assay [2] (effective concentration30, read-out: EC30 (95% C.L.)) turned out to be 5.4 µM. Also, the EC50 in assay [2] (effective concentration50, read-out: EC50 (95% C.L.)) came out at 15 µM. For the same compound, the minimal effective concentration in assay [2] (read-out: Minimum Effective Concentration) worked out at 0.3 µM.

As for `CCN(CC)CCNC(=O)c1cc(Cl)c(N)cc1OCC(=O)C(C)C` [Example 29, 4-Amino-5-chloro-N-[2-(diethylamino)ethyl]-2-[(3-methyl)-butan-2-on-1-yl]oxybenzamide], the ED50 in assay [1] (setting [3]) is over 3 mg/kg. The inhibition in vivo at 1 mg/kg with Cisplatin-Induced Emesis (i.v. × 2) was determined as 44%.

`CCN(CC)CCNC(=O)c1cc(Cl)c(N)cc1OCC1COC(C)(C)O1` (centres unmarked) [Example 18, 4-Amino-5-chloro-N-[2-(diethylamino)ethyl]-2-(2,2-dimethyl-1,3-dioxalan-4-yl)methoxybenzamide]: the ED50 in assay [1] (setting [3]) is over 3 mg/kg. Further, the inhibition in vivo at 3 mg/kg with Cisplatin-Induced Emesis (3 mg/kg, i.v. × 2) came out at 72%.
